# Results taken from ChEMBL document CHEMBL3217669, “Activation of a silent phenazine biosynthetic gene cluster reveals a novel natural product and a new resistance mechanism against phenazines” (Medchemcomm, 2012).
# Activity calls are given as the source filed them. No cut-off for these calls is given here.
# Experiments:
# Format in all cases: functional, organism-based
# Streptomyces coelicolor = experiment: Antibacterial activity against Streptomyces coelicolor M512 assessed as growth inhibition up to 0.5 umol after 48 hrs
# Bacillus subtilis = experiment: Antibacterial activity against Bacillus subtilis ATCC 14893 assessed as growth inhibition at 0.5 umol after overnight incubation
# Escherichia coli = experiment: Antibacterial activity against Escherichia coli K-12 assessed as growth inhibition at 0.5 umol after overnight incubation
SMILES,growth inhibition (GI) (Streptomyces coelicolor),growth inhibition (GI) (Bacillus subtilis),growth inhibition (GI) (Escherichia coli)
NC(=O)CC[C@H](NC(=O)c1cccc2nc3ccccc3nc12)C(=O)O,inactive,inactive,inactive
O=C(O)c1cccc2nc3ccccc3nc12,inactive,Active,inactive
